Experimental data from patent US5369030A, “Method of inducing cellular differentiations and altering cell phenotype using ceramide analogs” (Duke University, priority 1992, dated 1994).
Read-outs that look alike come from different tables or passages of the source.

Test system: HL-60 cells
Assay: HL-60 cell growth/proliferation, cells counted with a hemocytometer
Format: cell-based, human
Details: for cell density / inhibition of cell growth (in words): Example 3C; for cell density: starting density 2×10^5 cells/ml; for inhibition of cell growth (in words): time course to 108 hours
Protocol: Human myelocytic leukemia HL-60 cells (20-45 passages (American Type Culture Collection, Rockville, Md., accession no. CCL 240) were obtained and grown in RPMI 1640 medium (Sigma Chemical Co., St. Louis, Mo.) containing 10% fetal calf serum at 37° C. in 5% CO2 incubator at a cell density of 2×10^5 cells/mi. The cells were washed once with phosphate buffered saline (PBS) and resuspended in serum-free media containing insulin (5 mg/liter) and transferrin (5 mg/liter) for 2-3 hours before treatment with various compounds.
HL-60 cells were treated with 3 μM of Cn-L-t-APPD with acyl chain lengths of C6, C8, C10, C12, C14, C16, and C18 (m=4, 6, 8, 10, 12, 14 and 16) in fresh ehtanol solution or with an ethanol vehicle and cell growth was determined following three days of treatment. Cell growth was quantified using a hemocytometer. Cell viability was judged by the ability to exclude trypan blue dye. Viability was always more than 80% unless otherwise described.
HL-60 cells (starting cell density of 2×10^5 cells/ml) were treated with different concentrations of C14-L-t-APPD and cells were counted following 24 and 72 hours of treatment. The results are representative of three experiments. A 1μM dose of C14-L-t-APPD had little or no effect on cell growth at 24 or 72 hours (approximately 105% and 130% of control, respectively). A 2μM dose inhibited cell growth to approximately 65% of the control at both 24 and 72 hours. […] The IC50% was approximately 2 μM (10 fmol/cell). IC50% is the concentration of test compound that causes 50% inhibition of cell growth in comparison with controls. Thus, similar to results with C2-ceramide, C14-APPD inhibited cell proliferation at different durations of treatment.
HL-60 cells (starting cell density of 2×10^5 cells/ml) were treated with 3 μM Cn-L-t-APPD derivatives with N-acyl chain lengths of C6, C8, C10, C12, C14, C16, and C18 (m=4,6,8,10, 12, 14, and 16) and cells were counted at 0, 12, 36, 60, 84 and 108 hours post treatment. The results are representative of 3 experiments.
N-acyl derivatives of 2-amino-1-(4'-nitrophenyl)-1,3-propanediol (Cn-D-t-ANPPD) were tested to determine the effects of chain length on HL-60 cell growth as described in Examples 3 A. HL-60 cells (at a starting cell density of 2×10^5 cells/ml) were treated with 3 μM of the diff analogs (C6, C8, C10, C12, C14, C16 and C18) of Cn-D-t-ANPPD, and cell growth was determined at three days. The control received no Cn-D-t-ANPPD. Treatment of HL-60 cells with C2-ceramide is included for comparison.
HL-60 cells were treated with the indicated concentrations and cell growth was determined following three days of treatment as described in Example 3B.
The suitability of phenylaminopropanediol derivatives as analogs of ceramide allowed further investigation of the structural requirements for ceramide-mediated biology. For these experiments, C14 (N-myristoyl) derivatives of different phenylaminoalcohols were synthesized and examined for their biologic activity. HL-60 cells (starting cell density of 2×10^5 cells/ml) were treated with 3 μM of C14 derivatives C14-L-t-APPD, C14-D-t-ANPPD, C14-D-e-APP-1, C14-L-e-APP-1, C14-APP-3 and C14-D-APP3. The structures of these compounds are provided in Table I. Cell growth was determined at 3 days as described in Example 3A. The results shown are averages of two determinations, and are representative of five different experiments.
and C14-L-e-APP-1 HL-60 cells were treated as described in Example 3B. growth was determined after 3 days of treatment.

[1] = Example 3A, 3 μM Cn-L-t-APPD, three days
[2] = Homo sapiens, HL-60, 72 h, Example 4A, Table II, 3 μM Cn-D-t-ANPPD (C2-ceramide concentration not given), three days, read-out: CELL GROWTH (% OF CONTROL)
[3] = Example 5, 3 μM C14 derivatives, 3 days

`CCCCCCCC(=O)N[C@@H](CO)[C@@H](O)c1ccccc1` [C8-L-t-APPD] was tested, and the “cell growth, % of control” value [1] was 104%, the cell density (3 μM, 60 hours) was 800000 mL⁻¹ and the cell density (3 μM, 84 hours) was 1.4e+06 mL⁻¹. For the same compound, the cell density (3 μM, 108 hours) was 2.4e+06 mL⁻¹.
Work on `CCCCCCCCCCCCCCCCCC(=O)N[C@H](CO)[C@H](O)c1ccc([N+](=O)[O-])cc1` [C18-D-t-ANPPD] yielded an activity at 3 µM [2] of 82%.
In the case of `CCCCCCCCCCCCCC(=O)N[C@H](CO)[C@H](O)c1ccc([N+](=O)[O-])cc1` [C14-D-t-ANPPD], the “CELL GROWTH (% OF CONTROL)” value (Example 4A, Table II, 3 μM Cn-D-t-ANPPD (C2-ceramide concentration not given), three days, listed as C14 chain analog) is reported as “about 1 % OF CONTROL”, the activity at 3 µM [2] is reported as 1% and the activity at 0.1 µM (Homo sapiens, HL-60, 72 h, Example 4B, Table III, 0.1 μM, three days, read-out: CELL GROWTH (% OF CONTROL)) is reported as 110%. The activity at 0.2 µM (Homo sapiens, HL-60, 72 h, Example 4B, Table III, 0.2 μM, three days, read-out: CELL GROWTH (% OF CONTROL)) was 112%, the activity at 0.3 µM (Homo sapiens, HL-60, 72 h, Example 4B, Table III, 0.3 μM, three days, read-out: CELL GROWTH (% OF CONTROL)) was 113% and the activity at 0.5 µM (Homo sapiens, HL-60, 72 h, Example 4B, Table III, 0.5 μM, three days, read-out: CELL GROWTH (% OF CONTROL)) was 105%. The activity at 1 µM (Homo sapiens, HL-60, 72 h, Example 4B, Table III, 1 μM, three days, read-out: CELL GROWTH (% OF CONTROL)) was 85%, the activity at 2 µM (Homo sapiens, HL-60, 72 h, Example 4B, Table III, 2 μM, three days, read-out: CELL GROWTH (% OF CONTROL)) was 12% and the activity at 3 µM (Homo sapiens, HL-60, 72 h, Example 4B, Table III, 3 μM, three days, read-out: CELL GROWTH (% OF CONTROL)) was 3%. The activity at 4 µM (Homo sapiens, HL-60, 72 h, Example 4B, Table III, 4 μM, three days, read-out: CELL GROWTH (% OF CONTROL)) was 2% and the IC50 (Homo sapiens, HL-60, 72 h, Example 4B, three days, read-out: concentration for 50% inhibition of cell growth) was about 1500 nM.
`CCCCCCCC(=O)N[C@H](CO)[C@H](O)c1ccc([N+](=O)[O-])cc1` [C8-D-t-ANPPD] was tested, and the activity at 3 µM [2] was 70%.
Work on `CCCCCC(=O)N[C@H](CO)[C@H](O)c1ccc([N+](=O)[O-])cc1` [C6-D-t-ANPPD] yielded an activity at 3 µM [2] of 70%.
`CCCCCCCCCC(=O)N[C@H](CO)[C@H](O)c1ccc([N+](=O)[O-])cc1` [C10-D-t-ANPPD] gave an activity at 3 µM [2] of 68%.
`CCCCCCCCCCCCCC(=O)N[C@H](C)[C@H](O)c1ccccc1` [C14-D-t-APP-1] was tested, and the “cell growth, % of control” value [3] was 49%.
For `CCCCCCCCCCCCCCCC(=O)N[C@H](CO)[C@H](O)c1ccc([N+](=O)[O-])cc1` [C16-D-t-ANPPD], the “CELL GROWTH (% OF CONTROL)” value (Example 4A, Table II, 3 μM Cn-D-t-ANPPD (C2-ceramide concentration not given), three days) was about 5 % OF CONTROL and the activity at 3 µM [2] was 5%.
With `CCCCCCCCCCCC(=O)N[C@H](CO)[C@H](O)c1ccc([N+](=O)[O-])cc1` [C12-D-t-ANPPD] the “CELL GROWTH (% OF CONTROL)” value (Example 4A, Table II, 3 μM Cn-D-t-ANPPD (C2-ceramide concentration not given), three days, listed as C12 chain analog) was “about 4 % OF CONTROL” and the activity at 3 µM [2] was 4%.
In the case of `CCCCCCCCCCCCCCCC(=O)N[C@@H](CO)[C@@H](O)c1ccccc1` [C16-L-t-APPD], the “cell growth, % of control” value [1] is reported as about 65%, the cell density (3 μM, 60 hours) is reported as 400000 mL⁻¹ and the cell density (3 μM, 84 hours) is reported as 700000 mL⁻¹. The cell density (3 μM, 108 hours) was 1.2e+06 mL⁻¹ and the “inhibition of cell growth (in words)” value (3 μM) was “able to inhibit cell growth by significant amounts”.
For `CCCCCC(=O)N[C@@H](CO)[C@@H](O)c1ccccc1` [C6-L-t-APPD], the “cell growth, % of control” value [1] was 105%, the cell density (3 μM, 60 hours) was 800000 mL⁻¹ and the cell density (3 μM, 84 hours) was 1.4e+06 mL⁻¹. The cell density (3 μM, 108 hours) was 2.4e+06 mL⁻¹.
For `CCCCCCCCCCCCCC(=O)N[C@@H](CO)Cc1ccccc1` [C14-DAPP-3], the “cell growth, % of control” value [3] was 14%.
`CCCCCCCCCCCC(=O)N[C@@H](CO)[C@@H](O)c1ccccc1` [C12-L-t-APPD] was tested, and the “cell growth, % of control” value [1] was “approximately 40%”, the cell density (3 μM, 60 hours) was 300000 mL⁻¹ and the cell density (3 μM, 84 hours) was 300000 mL⁻¹. For the same compound, the cell density (3 μM, 108 hours) was 600000 mL⁻¹ and the “inhibition of cell growth (in words)” value (3 μM) was “able to inhibit cell growth by significant amounts”.
With `CCCCCCCCCCCCCCCCCC(=O)N[C@@H](CO)[C@@H](O)c1ccccc1` [C18-L-t-APPD] the “cell growth, % of control” value [1] was 116%, the cell density (3 μM, 60 hours) was 800000 mL⁻¹ and the cell density (3 μM, 84 hours) was 1.4e+06 mL⁻¹. The cell density (3 μM, 108 hours) was 2.3e+06 mL⁻¹.
For `CCCCCCCCCCCCCC(=O)N[C@H](CO)Cc1ccccc1` [C14-LAPP-3], the “cell growth, % of control” value [3] was 15%.
With `CCCCCCCCCCCCCC(=O)N[C@@H](C)[C@H](O)c1ccccc1` (relative stereo) [C14-DL-e-APP-1] the “cell growth, % of control” value [3] was 60%.
In the case of `CCCCCCCCCC(=O)N[C@@H](CO)[C@@H](O)c1ccccc1` [C10-L-t-APPD], the “cell growth, % of control” value [1] is reported as 90%, the cell density (3 μM, 60 hours) is reported as 800000 mL⁻¹ and the cell density (3 μM, 84 hours) is reported as 1.2e+06 mL⁻¹. It also gave a cell density (3 μM, 108 hours) of 2e+06 mL⁻¹ and an inhibition at 3 µM (Homo sapiens, HL-60, 72 h, Example 3A, 3 μM, three days, read-out: reduction of cell growth as compared to a control) of about 10%.
